According to ChEMBL document CHEMBL1201862, “PubChem BioAssay data set” (2004):
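Briefly, cells in 96-well plates were exposed to five compound concentrations for 48 h, and endpoints were estimated by linear interpolation. Abbreviation: GI50, concentration required for 50% inhibition of growth.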 Active and inactive are the calls of the source. Rule as the data show it: active = GI50 up to about 1.1 µM and inactive = higher.

Experiments:
Test in all cases: DTP human tumour cell line panel, 48 h
CCRF-CEM = tested on: CCRF-CEM
EKVX = tested on: EKVX
A549 = tested on: A549
K562 = tested on: K562
NCI-H23 = tested on: NCI-H23
T47D = tested on: T47D
HOP-92 = tested on: HOP-92
HL-60 = tested on: HL-60
SF-295 = tested on: SF-295
COLO 205 = tested on: COLO 205
DU-145 = tested on: DU-145
HCC 2998 = tested on: HCC 2998
HCT-116 = tested on: HCT-116
HOP-62 = tested on: HOP-62
CAKI-1 = tested on: CAKI-1
SF-539 = tested on: SF-539
OVCAR-4 = tested on: OVCAR-4
HCT-15 = tested on: HCT-15
SNB-19 = tested on: SNB-19
TK-10 = tested on: TK-10

In the case of `COc1ccc(NC(=S)NN=C(C)c2cccc(C(C)=NNC(=S)Nc3ccc(OC)cc3)n2)cc1`, the GI50 (CCRF-CEM) is reported as 3.33 µM (inactive), the GI50 (EKVX) is reported as > 100 µM (inactive) and the GI50 (A549) is reported as 23.7 µM (inactive). The GI50 (K562) was 31.3 µM (inactive), the GI50 (NCI-H23) was 64 µM (inactive) and the GI50 (T47D) was > 100 µM (inactive). For the same molecule, the GI50 (HOP-92) was 45.6 µM (inactive), the GI50 (HL-60) was 20.5 µM (inactive) and the GI50 (SF-295) was 11.2 µM (inactive). For the same molecule, the GI50 (COLO 205) was 4.45 µM (inactive), the GI50 (DU-145) was > 100 µM (inactive) and the GI50 (HCC 2998) was 37.7 µM (inactive). For the same molecule, the GI50 (HCT-116) was 11.6 µM (inactive), the GI50 (HOP-62) was 26.1 µM (inactive) and the GI50 (CAKI-1) was 11.4 µM (inactive). The GI50 (SF-539) was 16.4 µM (inactive), the GI50 (OVCAR-4) was 7.13 µM (inactive) and the GI50 (HCT-15) was 10.9 µM. For the same molecule, the GI50 (SNB-19) was > 100 µM (inactive) and the GI50 (TK-10) was 58.2 µM (inactive).

`C[n+]1cccc(/C=C/c2ccc3cccc(O)c3n2)c1` was tested, and the GI50 (CCRF-CEM) was 45.7 µM (inactive), the GI50 (EKVX) was > 100 µM (inactive) and the GI50 (A549) was 39.9 µM (inactive). The GI50 (K562) was 50.9 µM (inactive), the GI50 (NCI-H23) was 58.2 µM (inactive) and the GI50 (T47D) was 83.2 µM (inactive). The GI50 (HOP-92) was > 100 µM (inactive), the GI50 (HL-60) was 28.1 µM (inactive) and the GI50 (SF-295) was > 100 µM (inactive). For the same molecule, the GI50 (COLO 205) was > 100 µM (inactive), the GI50 (DU-145) was > 100 µM (inactive) and the GI50 (HCC 2998) was > 100 µM (inactive). For the same molecule, the GI50 (HCT-116) was > 100 µM (inactive), the GI50 (HOP-62) was 59 µM (inactive) and the GI50 (CAKI-1) was > 100 µM (inactive). For the same molecule, the GI50 (SF-539) was 88.1 µM (inactive), the GI50 (OVCAR-4) was > 100 µM (inactive) and the GI50 (HCT-15) was > 100 µM. The GI50 (SNB-19) was 42 µM (inactive) and the GI50 (TK-10) was > 100 µM (inactive).

In the case of `NS(=O)(=O)c1ccc(/N=N/c2c(O)c(C(=O)O)cc3ccccc23)cc1`, the GI50 (CCRF-CEM) is reported as > 100 µM (inactive), the GI50 (EKVX) is reported as > 100 µM (inactive) and the GI50 (A549) is reported as > 100 µM (inactive). For the same molecule, the GI50 (K562) was > 94.4 µM (inactive), the GI50 (NCI-H23) was > 100 µM (inactive) and the GI50 (T47D) was > 100 µM (inactive). The GI50 (HOP-92) was > 100 µM (inactive), the GI50 (HL-60) was > 100 µM (inactive) and the GI50 (SF-295) was > 100 µM (inactive). For the same molecule, the GI50 (COLO 205) was > 54.5 µM (inactive), the GI50 (DU-145) was > 100 µM (inactive) and the GI50 (HCC 2998) was > 100 µM (inactive). For the same molecule, the GI50 (HCT-116) was > 100 µM (inactive), the GI50 (HOP-62) was 99.1 µM (inactive) and the GI50 (CAKI-1) was > 100 µM (inactive). The GI50 (SF-539) was > 100 µM (inactive), the GI50 (OVCAR-4) was > 100 µM (inactive) and the GI50 (HCT-15) was > 100 µM. The GI50 (SNB-19) was 43.1 µM (inactive) and the GI50 (TK-10) was > 100 µM (inactive).

`Clc1nncc2sc(-c3ccccc3)nc12` was tested, and the GI50 (CCRF-CEM) was 29 µM (inactive), the GI50 (EKVX) was 4.12 µM (inactive) and the GI50 (A549) was 53.8 µM (inactive). For the same molecule, the GI50 (K562) was 7.71 µM (inactive), the GI50 (NCI-H23) was 17.5 µM (inactive) and the GI50 (T47D) was 28.5 µM (inactive). For the same molecule, the GI50 (HOP-92) was 5.06 µM (inactive), the GI50 (HL-60) was 4.14 µM (inactive) and the GI50 (SF-295) was 27.1 µM (inactive). The GI50 (COLO 205) was 29.2 µM (inactive), the GI50 (DU-145) was 6.62 µM (inactive) and the GI50 (HCC 2998) was 8.45 µM (inactive). For the same molecule, the GI50 (HCT-116) was 16.9 µM (inactive), the GI50 (HOP-62) was 17.8 µM (inactive) and the GI50 (CAKI-1) was 0.2 µM (active). For the same molecule, the GI50 (SF-539) was 27.5 µM (inactive), the GI50 (OVCAR-4) was 18.4 µM (inactive) and the GI50 (HCT-15) was 7 µM. For the same molecule, the GI50 (SNB-19) was 17.9 µM (inactive) and the GI50 (TK-10) was 40.9 µM (inactive).

`Cc1nc(Cl)c(Cl)c(Cl)n1` was tested, and the GI50 (CCRF-CEM) was 0.0109 µM (active), the GI50 (EKVX) was 0.357 µM (active) and the GI50 (A549) was 1.49 µM (inactive). The GI50 (K562) was < 0.0113 µM (active), the GI50 (NCI-H23) was 0.526 µM (active) and the GI50 (T47D) was 0.596 µM (active). The GI50 (HOP-92) was 0.238 µM (active), the GI50 (HL-60) was 0.0269 µM (active) and the GI50 (SF-295) was 1.86 µM (inactive). The GI50 (COLO 205) was 0.434 µM (active), the GI50 (DU-145) was 2.81 µM (inactive) and the GI50 (HCC 2998) was 1.42 µM (inactive). For the same molecule, the GI50 (HCT-116) was 0.118 µM (active), the GI50 (HOP-62) was 0.451 µM (active) and the GI50 (CAKI-1) was < 0.01 µM (active). The GI50 (SF-539) was 1.44 µM (inactive), the GI50 (OVCAR-4) was 0.0331 µM (active) and the GI50 (HCT-15) was 0.558 µM. For the same molecule, the GI50 (SNB-19) was 1.39 µM (inactive) and the GI50 (TK-10) was 1.08 µM (active).

With `COc1cccc(/C=N/n2c(Cc3ccc(Cl)cc3)n[nH]c2=O)c1` the GI50 (CCRF-CEM) was > 100 µM (inactive), the GI50 (EKVX) was 29.6 µM (inactive) and the GI50 (A549) was 58.6 µM (inactive). For the same molecule, the GI50 (K562) was > 100 µM (inactive), the GI50 (NCI-H23) was 27.9 µM (inactive) and the GI50 (T47D) was 16.1 µM (inactive). The GI50 (HOP-92) was 23.1 µM (inactive), the GI50 (HL-60) was > 100 µM (inactive) and the GI50 (SF-295) was 17.1 µM (inactive). The GI50 (COLO 205) was > 100 µM (inactive), the GI50 (DU-145) was 25.8 µM (inactive) and the GI50 (HCC 2998) was > 100 µM (inactive). For the same molecule, the GI50 (HCT-116) was 47.8 µM (inactive), the GI50 (HOP-62) was 15.4 µM (inactive) and the GI50 (CAKI-1) was 23.4 µM (inactive). The GI50 (SF-539) was 15.8 µM (inactive), the GI50 (OVCAR-4) was > 92.9 µM (inactive) and the GI50 (HCT-15) was 99.3 µM. For the same molecule, the GI50 (SNB-19) was 27.3 µM (inactive) and the GI50 (TK-10) was 74 µM (inactive).

For `C/C(=N\Nc1nc2ccccc2o1)c1ncccn1`, the GI50 (CCRF-CEM) was < 0.01 µM (active), the GI50 (EKVX) was < 0.0172 µM (active) and the GI50 (A549) was 0.0908 µM (active). The GI50 (K562) was 0.012 µM (active), the GI50 (NCI-H23) was 0.123 µM (active) and the GI50 (T47D) was < 0.01 µM (active). The GI50 (HOP-92) was 0.145 µM (active), the GI50 (HL-60) was < 0.01 µM (active) and the GI50 (SF-295) was 0.0824 µM (active). The GI50 (COLO 205) was < 0.01 µM (active), the GI50 (DU-145) was 0.0811 µM (active) and the GI50 (HCC 2998) was 0.141 µM (active). The GI50 (HCT-116) was < 0.0175 µM (active), the GI50 (HOP-62) was 0.0908 µM (active) and the GI50 (CAKI-1) was < 0.01 µM (active). The GI50 (SF-539) was 0.043 µM (active), the GI50 (OVCAR-4) was < 0.01 µM (active) and the GI50 (HCT-15) was < 0.0211 µM. The GI50 (SNB-19) was 0.163 µM (active) and the GI50 (TK-10) was 0.0675 µM (active).

For `O=C(/C=C/c1ccc(O)cc1)c1ccc(O)cc1` [4,4'-DIHYDROXYCHALCONE], the GI50 (CCRF-CEM) was 13.6 µM (inactive), the GI50 (EKVX) was 42.3 µM (inactive) and the GI50 (A549) was 30.5 µM (inactive). For the same molecule, the GI50 (K562) was 27.2 µM (inactive), the GI50 (NCI-H23) was 25.5 µM (inactive) and the GI50 (T47D) was 44.1 µM (inactive). For the same molecule, the GI50 (HOP-92) was 31.6 µM (inactive), the GI50 (HL-60) was 17 µM (inactive) and the GI50 (SF-295) was 31.8 µM (inactive). The GI50 (COLO 205) was 30.4 µM (inactive), the GI50 (DU-145) was 34.2 µM (inactive) and the GI50 (HCC 2998) was 24 µM (inactive). For the same molecule, the GI50 (HCT-116) was 16.8 µM (inactive), the GI50 (HOP-62) was 21.8 µM (inactive) and the GI50 (CAKI-1) was 18.1 µM (inactive). For the same molecule, the GI50 (SF-539) was 21.1 µM (inactive), the GI50 (OVCAR-4) was > 69.8 µM (inactive) and the GI50 (HCT-15) was 20.3 µM. The GI50 (SNB-19) was 32.7 µM (inactive) and the GI50 (TK-10) was 46.9 µM (inactive).

For `O=[N+]([O-])O` [NITRIC ACID], the GI50 (CCRF-CEM) was > 100 µM (inactive), the GI50 (EKVX) was > 100 µM (inactive) and the GI50 (A549) was > 100 µM (inactive). The GI50 (K562) was > 100 µM (inactive), the GI50 (NCI-H23) was > 100 µM (inactive) and the GI50 (T47D) was > 100 µM (inactive). The GI50 (HOP-92) was > 100 µM (inactive), the GI50 (HL-60) was > 100 µM (inactive) and the GI50 (SF-295) was > 100 µM (inactive). For the same molecule, the GI50 (COLO 205) was > 100 µM (inactive), the GI50 (DU-145) was > 100 µM (inactive) and the GI50 (HCC 2998) was > 100 µM (inactive). For the same molecule, the GI50 (HCT-116) was > 100 µM (inactive), the GI50 (HOP-62) was > 100 µM (inactive) and the GI50 (CAKI-1) was > 100 µM (inactive). For the same molecule, the GI50 (SF-539) was > 100 µM (inactive), the GI50 (OVCAR-4) was > 100 µM (inactive) and the GI50 (HCT-15) was > 100 µM. For the same molecule, the GI50 (SNB-19) was > 100 µM (inactive) and the GI50 (TK-10) was > 100 µM (inactive).
